Measured values as given in US4334066A (priority 1981, dated 1982).
Values after ≈ are worked out from the molar mass of the structure shown.

Legend:
Assay type in all cases: cell-based
[1] = system: Rice blast disease (Pyricularia oxyzae); assay: microbe, parasite or virus in culture; conditions: 48 h, read-out: Minimum Inhibitory Concentration
[2] = system: Stem rot of eggplant (Sclerotinia Sclerotiorum); conditions: 48 h, test microorganism C, PDA medium, complete inhibition of mycelial growth, read 2 days later, read-out: Minimum Inhibitory Concentration
Description: (§1) The test microorganisms employed are described below.
C . . . Stem rot of eggplant
(Sclerotinia Sclerotiorum)

[3] = system: Gammy stem blight of melon (Mycosphaerella melonis); conditions: 48 h, test microorganism D, PDA medium, complete inhibition of mycelial growth, read 2 days later, read-out: Minimum Inhibitory Concentration
Description: as §1
D . . . Gammy stem blight of melon

[4] = system: Early blight of tomato (Alternaria solaui); conditions: 48 h, test microorganism E, PDA medium, complete inhibition of mycelial growth, read 2 days later, read-out: Minimum Inhibitory Concentration
Description: as §1
E . . . Early blight of tomato

[5] = system: Bacterial blight of rice (Xanthomonas oryzae); assay: microbe, parasite or virus in culture; conditions: 48 h, read-out: Minimum Inhibitory Concentration

Work on `CCC1OC(OC)C=C(CN2CCNCC2)C1=O` (stereo not drawn) [Compound 1, 6-ethyl-2-methoxy-4-piperazinomethyl-5-oxo-5,6-dihydro-2H-pyran] yielded an MIC [1] of 100 µg/mL (≈ 393 µM), an MIC [2] of 100 µg/mL (≈ 393 µM) and an MIC [3] of 100 µg/mL (≈ 393 µM). The MIC [4] was 200 µg/mL (≈ 786 µM) and the MIC [5] was 12.5 µg/mL (≈ 49.1 µM).
`CCOC1C=C(CN2CCOCC2)C(=O)C(C(C)C)O1` (stereo not drawn) [Compound 2, 6-isopropyl-2-ethoxy-4-morpholinomethyl-5-oxo-5,6-dihydro-2H-pyran] was tested, and the MIC [1] was 100 µg/mL (≈ 353 µM), the MIC [2] was 100 µg/mL (≈ 353 µM) and the MIC [3] was 100 µg/mL (≈ 353 µM). The MIC [4] was 200 µg/mL (≈ 706 µM).
